The target in the experiment is T1, human liver GK (Homo sapiens, UniProt P35557).
T1 construct: GST (glutathione S-transferase) (N); made in house; host or cells: E. coli
T1 sequence (P35557 1-466 isoform P35557-2): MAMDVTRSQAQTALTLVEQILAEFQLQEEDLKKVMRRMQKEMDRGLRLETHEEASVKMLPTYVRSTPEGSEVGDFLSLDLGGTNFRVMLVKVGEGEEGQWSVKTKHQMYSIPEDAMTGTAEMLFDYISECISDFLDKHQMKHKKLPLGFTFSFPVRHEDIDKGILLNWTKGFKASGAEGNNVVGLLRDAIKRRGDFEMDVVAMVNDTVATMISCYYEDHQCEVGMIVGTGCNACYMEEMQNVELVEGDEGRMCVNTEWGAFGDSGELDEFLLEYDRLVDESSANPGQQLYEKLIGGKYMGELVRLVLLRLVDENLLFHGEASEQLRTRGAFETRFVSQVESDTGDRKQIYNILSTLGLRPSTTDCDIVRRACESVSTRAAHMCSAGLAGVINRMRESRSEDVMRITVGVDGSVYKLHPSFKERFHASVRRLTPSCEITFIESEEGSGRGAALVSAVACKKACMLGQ
Kind of experiment: GK activation test. Particulars: test compound concentration needed to activate 50% of maximum activation ability; 4 mM 14C-labeled glucose, 2 mM ATP, room temperature, 20 minutes. The class given is biochemical. In a few lines:
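GST-tagged human liver GK from E. coli (0.24 μg/well) with 4 mM 14C-glucose, 2 mM ATP in Hepes-KOH pH 7.1, KCl, MgCl2, DTT, 1% DMSO, 20 min room temperature. Labeled glucose 6-phosphate captured on anion resin, eluted and counted. EC50 = concentration giving half of maximal activation.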
Molecule `O=c1[nH]c(/C(=C/[C@H]2CC[C@H](O)CC2)c2ccc(SC3CC3)cc2)ccc1C(F)(F)F` [Example 1-90, 6-[(E)-1-[4-(Cyclopropylsulfanyl)phenyl]-2-(trans-4-hydroxycyclohexyl)ethenyl]-3-(trifluoromethyl)pyridin-2(1H)-one] had an EC50 of 10 to 500 nM.

`COc1cc(F)c(C(C[C@H]2CCC(=O)N2)c2ccc(C3CC3)c(=O)[nH]2)cc1Cl` (single isomer, unassigned) [Example 4-346] came in with a concentration for a half-maximal effect (EC50) of 10 to 500 nM.

For the molecule `CCOc1ccc(/C(=C\[C@H]2CCC(=O)N2)c2ccc(Cl)c(=O)[nH]2)cc1C` [Example 4-50, 3-Chloro-6-{(E)-1-(4-ethoxy-3-methylphenyl)-2-[(2R)-5-oxopyrrolidin-2-yl]ethenyl}pyridin-2(1H)-one], the EC50 was in the range of 500 to 3000 nM.

Regarding `O=C1CC[C@H](CC(c2ccc(Cl)c(C(F)(F)F)c2)c2ccc(C3CC3)c(=O)[nH]2)N1` (single isomer, unassigned) [Example 4-221], the EC50 was in the range of 500 to 3000 nM.

On to `CCOc1ccc(C(C[C@H]2CCC(=O)N2)c2ccc(C3CC3)c(=O)[nH]2)cc1Cl` (single isomer, unassigned) [Example 4-87], for which the 50% effective concentration (EC50) lay within 10 to 500 nM.

For `CCS(=O)(=O)N1CC[C@H](/C=C(\c2ccc(C(C)(C)C)cc2)c2ccc(Cl)c(=O)[nH]2)C1` [Example 4-72, 6-{(E)-1-(4-tert-Butylphenyl)-2-[(3R)-1-(ethylsulfonyl)pyrrolidin-3-yl]ethenyl}-3-chloropyridin-2(1H)-one], the concentration for a half-maximal effect (EC50) was in the range of 10 to 500 nM.

Regarding `CS(=O)(=O)c1ccc(C/C(=C\C2CCOCC2)c2ccc(Cl)c(=O)[nH]2)cc1` [Example 1-113, 3-Chloro-6-[(1E)-3-[4-(methylsulfonyl)phenyl]-1-(tetrahydro-2H-pyran-4-yl)prop-1-en-2-yl]pyridin-2(1H)-one], the EC50 was 3000 to 10000 nM.

In turn, `Cc1cc(/C(=C\[C@H]2CCC(=O)N2)c2ccc(C3CC3)c(=O)[nH]2)ccc1S(=O)(=O)C1CC1` [Example 4-54, 3-Cyclopropyl-6-{(E)-1-[4-(cyclopropylsulfonyl)-3-methylphenyl]-2-[(2R)-5-oxopyrrolidin-2-yl]ethenyl}pyridin-2(1H)-one] displayed an EC50 of 10 to 500 nM.

As for `Cc1cc(C(C[C@H]2CCC(=O)N2)c2ccc(C3CC3)c(=O)[nH]2)ccc1C(F)(F)F` (single isomer, unassigned) [Example 4-331], the EC50 is 3000 to 10000 nM.

The molecule `O=C1CC[C@H](/C=C(\c2ccc(C(F)(F)F)cn2)c2ccc(C3CC3)c(=O)[nH]2)N1` [Example 4-172, 3-Cyclopropyl-6-{(Z)-2-[(2R)-5-oxopyrrolidin-2-yl]-1-[5-(trifluoromethyl)pyridin-2-yl]ethenyl}pyridin-2(1H)-one] registered a concentration giving a half-maximal response (EC50) of 500 to 3000 nM.

In the case of `Cc1cc(C(C[C@H]2CCC(=O)N2)c2ccc(C3CC3)c(=O)[nH]2)ccc1Cl` (single isomer, unassigned) [Example 4-214], the EC50 was in the range of 3000 to 10000 nM.

In the case of `Cc1cc(/C(=C\[C@H]2CCC(=O)N2)c2ccc(C3CC3)c(=O)[nH]2)ccc1C(F)F` [Example 4-133, 3-Cyclopropyl-6-{(E)-1-[4-(difluoromethyl)-3-methylphenyl]-2-[(2R)-5-oxopyrrolidin-2-yl]ethenyl}pyridin-2(1H)-one], the EC50 is 10 to 500 nM.

Take `CS(=O)(=O)c1ccc(/C(=C\CCO)c2ccc(C3CC3)c(=O)[nH]2)cc1` [Example 1-93, 3-Cyclopropyl-6-{(1E)-4-hydroxy-1-[4-(methylsulfonyl)phenyl]but-1-en-1-yl}pyridin-2(1H)-one]: the EC50 lay in the range of 3000 to 10000 nM.

Take `O=C1CC[C@H](CC(c2ccc(C3CC3)cc2)c2ccc(Cl)c(=O)[nH]2)N1` (single isomer, unassigned) [Example 4-317]: the EC50 lay within 500 to 3000 nM.

In turn, `O=C1CC[C@H](/C=C(\c2ccc(Cl)c(OC(F)(F)F)c2)c2ccc(C3CC3)c(=O)[nH]2)N1` [Example 4-129, 6-{(E)-1-[4-Chloro-3-(trifluoromethoxy)phenyl]-2-[(2R)-5-oxopyrrolidin-2-yl]ethenyl}-3-cyclopropylpyridin-2(1H)-one] showed a half-maximal effective concentration (EC50) of 500 to 3000 nM.

Molecule `CSc1ccc(/C(=C\[C@H]2CCC(O)C2)c2ccc(C3CC3)c(=O)[nH]2)cc1Cl` (stereo partly drawn) [Example 1-85, 6-{(E)-1-[3-Chloro-4-(methylsulfanyl)phenyl]-2-[(1S)-3-hydroxycyclopentyl]ethenyl}-3-cyclopropylpyridin-2(1H)-one] gave an EC50 of 10 to 500 nM.

In turn, `COc1ccc(/C(=C\[C@H]2CCC(=O)N2)c2ccc(C3CC3)c(=O)[nH]2)cc1Cl` [Example 4-260, 6-{(E)-1-(3-Chloro-4-methoxyphenyl)-2-[(2R)-5-oxopyrrolidin-2-yl]ethenyl}-3-cyclopropylpyridin-2(1H)-one] had an EC50 of 10 to 500 nM.

`O=C1CC[C@H](CC(c2ccc(OC(F)F)cc2)c2ccc(C3CC3)c(=O)[nH]2)N1` (single isomer, unassigned) [Example 4-230] showed an EC50 of 3000 to 10000 nM.

In the case of `CCc1ccc(/C(=C/[C@H]2CCC(=O)N2)c2ccc(C(C)(C)C)cc2)[nH]c1=O` [Example 4-176, 6-{(E)-1-(4-tert-Butylphenyl)-2-[(2R)-5-oxopyrrolidin-2-yl]ethenyl}-3-ethylpyridin-2(1H)-one], the EC50 lay within 10 to 500 nM.

`CN1CCN(S(=O)(=O)c2ccc(/C(=C\[C@H]3CCC(=O)N3)c3ccc(Cl)c(=O)[nH]3)cc2)CC1` [Example 4-61, 3-Chloro-6-{(E)-1-{4-[(4-methylpiperazin-1-yl)sulfonyl]phenyl}-2-[(2R)-5-oxopyrrolidin-2-yl]ethenyl}pyridin-2(1H)-one] registered a 50% effective concentration (EC50) of 500 to 3000 nM.

Consider `COc1cc(C(C)(C)C)ccc1/C(=C\[C@H]1CCC(=O)N1)c1ccc(Cl)c(=O)[nH]1` [Example 4-148, 6-{(E)-1-(4-tert-Butyl-2-methoxyphenyl)-2-[(2R)-5-oxopyrrolidin-2-yl]ethenyl}-3-chloropyridin-2(1H)-one], for which the EC50 is 500 to 3000 nM.

`Cc1cc(/C(=C\[C@H]2CCC(=O)N2)c2ccc(Cl)c(=O)[nH]2)ccc1OCCCO` [Example 4-52, 3-Chloro-6-{(E)-1-[4-(3-hydroxypropoxy)-3-methylphenyl]-2-[(2R)-5-oxopyrrolidin-2-yl]ethenyl}pyridin-2(1H)-one] yielded an EC50 of 500 to 3000 nM.

The molecule `Cc1ccc(/C(=C\[C@H]2CCC(=O)N2)c2ccc(Cl)c(=O)[nH]2)cc1Cl` [Example 4-24, 3-Chloro-6-{(E)-1-(3-chloro-4-methylphenyl)-2-[(2R)-5-oxopyrrolidin-2-yl]ethenyl}pyridin-2(1H)-one] showed an EC50 of 500 to 3000 nM.

As for `CCOc1ccc(C(C[C@H]2CCC(=O)N2)c2ccc(C3CC3)c(=O)[nH]2)cc1F` (single isomer, unassigned) [Example 4-354], the EC50 is 500 to 3000 nM.

With `O=C1CC[C@H](/C=C(\c2ccc(C(F)(F)F)cc2)c2ccc(-c3cn[nH]c3)c(=O)[nH]2)N1` [Example 4-360, 6-{(E)-2-[(2R)-5-Oxopyrrolidin-2-yl]-1-[4-(trifluoromethyl)phenyl]ethenyl}-3-(1H-pyrazol-4-yl)pyridin-2(1H)-one], the EC50 is 10 to 500 nM.

`CCOc1cccc(/C(=C\[C@H]2CCC(=O)N2)c2ccc(C3CC3)c(=O)[nH]2)c1` [Example 4-7, 3-Cyclopropyl-6-{(E)-1-(3-ethoxyphenyl)-2-[(2R)-5-oxopyrrolidin-2-yl]ethenyl}pyridin-2(1H)-one] had an EC50 of 500 to 3000 nM.

Turning to `Cc1ccc([C@@]2(c3ccc(S(C)(=O)=O)c(Cl)c3)C[C@@H]2C2CCCC2)[nH]c1=O` (relative stereo) [Example 3-2, trans-6-{1-[3-Chloro-4-(methylsulfonyl)phenyl]-2-cyclopentylcyclopropyl}-3-methylpyridin-2(1H)-one], the EC50 was in the range of 500 to 3000 nM.

As for `CC(C)(C)c1ccc(/C(=C\[C@H]2CCC(=O)N2)c2ccc(Oc3ccc(C(F)(F)F)cc3)c(=O)[nH]2)cc1` [Example 4-189, 6-{(E)-1-(4-tert-Butylphenyl)-2-[(2R)-5-oxopyrrolidin-2-yl]ethenyl}-3-[4-(trifluoromethyl)phenoxy]pyridin-2(1H)-one], the concentration for a half-maximal effect (EC50) fell in the range of 500 to 3000 nM.

For the molecule `O=C1CC[C@H](/C=C(\c2ccc(S(=O)(=O)N3CCCC3)cc2)c2ccc(C3CC3)c(=O)[nH]2)N1` [Example 4-136, 3-Cyclopropyl-6-{(E)-2-[(2R)-5-oxopyrrolidin-2-yl]-1-[4-(pyrrolidin-1-ylsulfonyl)phenyl]ethenyl}pyridin-2(1H)-one], the EC50 lay in the range of 10 to 500 nM.

With `O=C1CC[C@H](CC(c2ccc(S(=O)(=O)C3CC3)cc2)c2ccc(C3CC3)c(=O)[nH]2)N1` (single isomer, unassigned) [Example 4-306], the concentration for a half-maximal effect (EC50) lay within 10 to 500 nM.

With `CSc1ccc(/C(=C\C2CCCC2)c2ccc(C3CC3)c(=O)[nH]2)cc1` [Example 1-5, 6-{(E)-2-Cyclopentyl-1-[4-(methylsulfanyl)phenyl]ethenyl}-3-cyclopropylpyridin-2(1H)-one], the EC50 lay within 10 to 500 nM.

In turn, `O=C1CC[C@H](/C=C(\c2ccc(CO)cc2)c2ccc(Cl)c(=O)[nH]2)N1` [Example 4-277, 3-Chloro-6-{(E)-1-[4-(hydroxymethyl)phenyl]-2-[(2R)-5-oxopyrrolidin-2-yl]ethenyl}pyridin-2(1H)-one] showed an EC50 of 3000 to 10000 nM.

As for `COc1ccc(C(C[C@H]2CCC(=O)N2)c2ccc(C(C)(C)C)cc2)[nH]c1=O` (single isomer, unassigned) [Example 4-245], the EC50 was 3000 to 10000 nM.

The record behind these values is patent US8822503B2, “2-pyridone compounds” (Taisho Pharmaceutical Co., Ltd, priority 2009, dated 2014).
